Reference: patent US8921552B2, “Benzothiazole hybrids useful as anticancer agents and process for the preparation thereof” (Council of Scientific & Industrial Research, priority 2011, dated 2014)

Experiments:
A-549 = assay: In vitro cytotoxicity, SRB assay, lung cancer cell line A-549; format: cell-based, human; settings: A-549 (lung); for inhibition at 10 µM: Homo sapiens, A549, 48 h exposure, read-out: % of growth inhibition
Source text: (§1) The benzothiazole hybrids has been tested against seven human tumor cell lines derived from six cancer types (lung cancer, colon cancer, CNS cancer, ovarian cancer, prostate cancer and breast cancer). For these compounds results are expressed as percent of cell growth inhibition relative to that of untreated control cells.

IGR-OV-1 = assay: In vitro cytotoxicity, SRB assay, ovarian cancer cell line IGR-OV-1; format: cell-based, human; settings: IGR-OV-1 (ovarian); for inhibition at 10 µM: Homo sapiens, IGROV-1, 48 h exposure, read-out: % of growth inhibition
Source text: as §1

Colo-205 = assay: In vitro cytotoxicity, SRB assay, colon cancer cell line Colo-205; format: cell-based, human; settings: Colo-205 (colon); for inhibition at 10 µM: Homo sapiens, 48 h exposure, read-out: % of growth inhibition
Source text: as §1

SW-620 [1] = assay: In vitro cytotoxicity, SRB assay, colon cancer cell line SW-620; format: cell-based; settings: Homo sapiens, SW-620 (colon), 48 h exposure, read-out: % of growth inhibition
Protocol: as §1, with “cells. A protocol of 48 h continuous drug exposure has been used, and a sulforhodamine B (SRB) protein assay was used to estimate cell viability or growth.” for “cells.”
(§2) The compounds 9b, 9h, 9m, 9r, 15c, 15h, 15m, 15r, 10b, 10h, 10m, 10r, 16c, 16h and 16m were evaluated for in vitro anticancer activity against seven human tumor cells derived from six cancer types (lung cancer, colon cancer, CNS cancer, ovarian cancer, prostate cancer and breast cancer) at concentration of 10 μM and the results are shown in Table 1.

PC-3 = assay: In vitro cytotoxicity, SRB assay, prostate cancer cell line PC-3; format: cell-based, human; settings: PC-3 (prostate); for inhibition at 10 µM: Homo sapiens, 48 h exposure, read-out: % of growth inhibition
Source text: as §1

MCF7 = assay: In vitro cytotoxicity, SRB assay, breast cancer cell line MCF7; format: cell-based, human; settings: for inhibition at 10 µM: Homo sapiens, 48 h exposure, read-out: % of growth inhibition
Source text: as §1

SF-295 = assay: In vitro cytotoxicity, SRB assay, CNS cancer cell line SF-295; format: cell-based, human; settings: SF-295 (CNS); for inhibition at 10 µM: Homo sapiens, 48 h exposure, read-out: % of growth inhibition
Source text: as §1

human tumor cell lines = assay: In vitro anticancer activity, panel of seven human tumor cell lines (SRB assay); format: cell-based; settings: Homo sapiens; range over the cell lines, 10 μM, exposure period of at least 48 hrs; read-out: percentage growth inhibition for invitro anticancer activity
Protocol: as §1, with “cells. A protocol of 48 h continuous drug exposure has been used, and a sulforhodamine B (SRB) protein assay was used to estimate cell viability or growth.” for “cells.”
as §2

SW-620 [2] = assay: In vitro cytotoxicity, SRB assay, colon cancer cell line SW-620; format: cell-based, human; settings: SW-620 (colon), reference drug at 1 μM

Row | Structure (SMILES) | inhibition at 10 µM (A-549) [%] | inhibition at 10 µM (IGR-OV-1) [%] | inhibition at 10 µM (Colo-205) [%] | inhibition at 10 µM (SW-620 [1]) [%] | inhibition at 10 µM (PC-3) [%] | inhibition at 10 µM (MCF7) [%] | inhibition at 10 µM (SF-295) [%] | inhibition at 10 µM (human tumor cell lines) [%] | % of growth inhibition (A-549; reference drug at 1 μM) [%] | % of growth inhibition (IGR-OV-1; reference drug at 1 μM) [%] | % of growth inhibition (Colo-205; reference drug at 1 μM) [%] | % of growth inhibition (PC-3; reference drug at 1 μM) [%] | % of growth inhibition (MCF7; reference drug at 1 μM) [%] | % of growth inhibition (SF-295; reference drug at 1 μM) [%] | % of growth inhibition (SW-620 [2]) [%]
1 | O=c1[nH]cc(F)c(=O)[nH]1 [5-Fluoro uracil, reference compound] | 64 | 47 | 55 | 41 | 29 | 66 | 9 |  |  |  |  |  |  |  | 
2 | COc1ccc(/C=C\c2cc(OC)c(OC)c(OC)c2)cc1OCCCCOc1ccc(-c2nc3ccccc3s2)cc1 [Compound 9h, 2-[4-(4-{2-methoxy-5-[(Z)-2-(3,4,5-trimethoxyphenyl)-1-ethenyl]phenoxy}butoxy)phenyl]-1,3-benzothiazole] | 63 | 54 | 15 |  | 65 | 64 | 34 | 1 to 100 |  |  |  |  |  |  | 
3 | COc1ccc(/C=C\c2cc(OC)c(OC)c(OC)c2)cc1OCCCCOc1cc(-c2nc3ccccc3s2)ccc1OC [Compound 9m, 2-[4-methoxy-3-(4-{2-methoxy-5-[(Z)-2-(3,4,5-trimethoxyphenyl)-1-ethenyl]phenoxy}butoxy)phenyl]-1,3-benzothiazole] | 73 | 58 | 70 |  | 68 | 64 | 44 | 1 to 100 |  |  |  |  |  |  | 
4 | COc1cccc2c1C(=O)c1c(O)c3c(c(O)c1C2=O)C[C@@](O)(C(=O)CO)C[C@@H]3O[C@H]1C[C@H](N)[C@H](O)[C@H](C)O1 [Adriyamycin, reference compound] |  |  |  |  |  |  |  |  | 95 | 78 | 77 | 55 | 69 | 55 | 21
